Measurements reported in US10112906B2, “1-aryl-3-alkylpyrazole insecticides” (E. I. DU PONT DE NEMOURS AND COMPANY, priority 2013, dated 2018).

Assays:
Type in all cases: in vivo
[1] = test system: diamondback moth (Plutella xylostella (L.)); assay: Test A: control of diamondback moth, foliar spray on mustard plant; settings: neonate larvae, assessed after 6 days
Description: (§1) Test compounds were formulated using a solution containing 10% acetone, 90% water and 300 ppm X-77® Spreader Lo-Foam Formula non-ionic surfactant containing alkylarylpolyoxyethylene, free fatty acids, glycols and isopropanol (Loveland Industries, Inc. Greeley, Colo., USA). The formulated compounds were applied in 1 mL of liquid through a SUJ2 atomizer nozzle with ⅛ JJ custom body (Spraying Systems Co. Wheaton, Ill., USA) positioned 1.27 cm (0.5 inches) above the top of each test unit. Test compounds were sprayed at the rates indicated, and each test was replicated three times.
For evaluating control of diamondback moth (Plutella xylostella (L.)) the test unit consisted of a small open container with a 12-14-day-old mustard plant inside. This was pre-infested with ˜50 neonate larvae that were dispensed into the test unit via corn cob grits using an inoculator. The larvae moved onto the test plant after being dispensed into the test unit.
Test compounds were formulated and sprayed at 250 and/or 50 ppm. After spraying of the formulated test compound, each test unit was allowed to dry for 1 hour and then a black, screened cap was placed on top. The test units were held for 6 days in a growth chamber at 25° C. and 70% relative humidity. Plant feeding damage was then visually assessed based on foliage consumed, and larvae were assessed for mortality.

[2] = test system: fall armyworm (Spodoptera frugiperda (J. E. Smith)); assay: Test B: control of fall armyworm, foliar spray on corn (maize) plant; settings: 1-day-old larvae, assessed after 6 days
Description: as §1
For evaluating control of fall armyworm (Spodoptera frugiperda (J. E. Smith)) the test unit consisted of a small open container with a 4-5-day-old corn (maize) plant inside. This was pre-infested with 10-15 1-day-old larvae on a piece of insect diet.
Test compounds were formulated and sprayed at 250 and/or 50 ppm. After spraying of the formulated test compound, the test units were maintained in a growth chamber for 6 days at 25° C. and 70% relative humidity. Plant feeding damage was then visually assessed based on foliage consumed, and larvae were assessed for mortality.

[3] = test system: potato leafhopper (Empoasca fabae (Harris)); assay: Test D: control of potato leafhopper through contact and/or systemic means; settings: 144 h, sprayed at 250 ppm, Soleil bean plant, adults, assessed after 6 days
Description: as §1
For evaluating control of potato leafhopper (Empoasca fabae (Harris)) through contact and/or systemic means, the test unit consisted of a small open container with a 5-6-day-old Soleil bean plant (primary leaves emerged) inside. White sand was added to the top of the soil, and one of the primary leaves was excised prior to application of the test compound.
Test compounds were formulated and sprayed at 250 and/or 50 ppm. After spraying of the formulated test compound, the test units were allowed to dry for 1 hour before they were post-infested with 5 potato leafhoppers (18-to-21-day-old adults). A black, screened cap was placed on the top of the test unit, and the test units were held for 6 days in a growth chamber at 20° C. and 70% relative humidity. Each test unit was then visually assessed for insect mortality.

Compound: 2-[3-cyclohexyl-4-[[4-(trifluoromethyl)-1-piperidinyl]methyl]-1H-pyrazol-1-yl]-4-(trifluoromethyl)pyridine [Compound 23]
- control efficacy (40% or less feeding damage and/or 100% mortality) ([1]; sprayed at 50 ppm): very good to excellent levels of control efficacy
- control efficacy (40% or less feeding damage and/or 100% mortality) ([1]; sprayed at 250 ppm): very good to excellent levels of control efficacy
- control efficacy (40% or less feeding damage and/or 100% mortality) ([2]; sprayed at 50 ppm): very good to excellent levels of control efficacy
- control efficacy (40% or less feeding damage and/or 100% mortality) ([2]; sprayed at 250 ppm): very good to excellent levels of control efficacy

Compound: N#CC1CCN(Cc2cn(-c3ccc(Cl)c(Cl)c3)nc2Cc2ccccc2F)CC1 [Compound 1]
- control efficacy (40% or less feeding damage and/or 100% mortality) ([1]; sprayed at 50 ppm): very good to excellent levels of control efficacy

Compound: N#CC1CCN(Cc2cn(-c3ccc(Cl)c(Cl)c3)nc2Cc2ccc(F)cc2)CC1 [Compound 2]
- control efficacy (40% or less feeding damage and/or 100% mortality) ([1]; sprayed at 50 ppm): very good to excellent levels of control efficacy

Compound: N#CC1CCN(Cc2cn(-c3ccc(Cl)cc3)nc2C=CCl)CC1 [Compound 9]
- control efficacy (40% or less feeding damage and/or 100% mortality) ([2]; sprayed at 50 ppm): very good to excellent levels of control efficacy
- control efficacy (40% or less feeding damage and/or 100% mortality) ([2]; sprayed at 250 ppm): very good to excellent levels of control efficacy

Compound: N#CC1CCN(Cc2cn(-c3ccc(Cl)c(Cl)c3)nc2C2CC2)CC1 [Compound 12]
- control efficacy (40% or less feeding damage and/or 100% mortality) ([1]; sprayed at 50 ppm): very good to excellent levels of control efficacy

Compound: CC(=O)N[C@H]1CCN(Cc2cn(-c3ccc(Cl)c(Cl)c3)nc2C2CC2)C1 [Compound 13]
- control efficacy (40% or less feeding damage and/or 100% mortality) ([1]; sprayed at 50 ppm): very good to excellent levels of control efficacy

Compound: CCc1nn(-c2ccc(Cl)c(Cl)c2)cc1CN1CCC(C#N)CC1 [Compound 14]
- control efficacy (40% or less feeding damage and/or 100% mortality) ([1]; sprayed at 50 ppm): very good to excellent levels of control efficacy

Compound: C=Cc1nn(-c2ccc(Cl)c(Cl)c2)cc1CN1CCC(C#N)CC1 [Compound 15]
- control efficacy (40% or less feeding damage and/or 100% mortality) ([1]; sprayed at 50 ppm): very good to excellent levels of control efficacy

Compound: N#CC1CCN(Cc2cn(-c3ccc(Cl)c(Cl)c3)nc2C2CCCCC2)CC1 [Compound 19]
- control efficacy (40% or less feeding damage and/or 100% mortality) ([2]; sprayed at 50 ppm): very good to excellent levels of control efficacy
- control efficacy (40% or less feeding damage and/or 100% mortality) ([2]; sprayed at 250 ppm): very good to excellent levels of control efficacy

Compound: O=C(NC1CCN(Cc2cn(-c3ccc(Cl)c(Cl)c3)nc2C2CCCCC2)C1)C1CC1 (stereo not shown) [Compound 20]
- control efficacy (40% or less feeding damage and/or 100% mortality) ([1]; sprayed at 250 ppm): very good to excellent levels of control efficacy
- control efficacy (40% or less feeding damage and/or 100% mortality) ([2]; sprayed at 250 ppm): very good to excellent levels of control efficacy

Compound: Cc1nn(-c2ccc(Cl)c(Cl)c2)cc1CN1CCC(C#N)CC1 [Compound 21]
- control efficacy (40% or less feeding damage and/or 100% mortality) ([1]; sprayed at 50 ppm): very good to excellent levels of control efficacy
- control efficacy (40% or less feeding damage and/or 100% mortality) ([1]; sprayed at 250 ppm): very good to excellent levels of control efficacy

Compound: Cc1nn(-c2ccc(Cl)c(Cl)c2)cc1CN1CCC(NC(=O)C2CC2)C1 (stereo not shown) [Compound 22]
- control efficacy (40% or less feeding damage and/or 100% mortality) ([1]; sprayed at 50 ppm): very good to excellent levels of control efficacy
- control efficacy (40% or less feeding damage and/or 100% mortality) ([1]; sprayed at 250 ppm): very good to excellent levels of control efficacy

Compound: FC(F)(F)C1CCN(Cc2cn(-c3ccc(Cl)c(Cl)c3)nc2C2CCC2)CC1 [Compound 28]
- control efficacy (40% or less feeding damage and/or 100% mortality) ([1]; sprayed at 50 ppm): very good to excellent levels of control efficacy
- control efficacy (40% or less feeding damage and/or 100% mortality) ([1]; sprayed at 250 ppm): very good to excellent levels of control efficacy
- control efficacy (40% or less feeding damage and/or 100% mortality) ([2]; sprayed at 50 ppm): very good to excellent levels of control efficacy
- control efficacy (40% or less feeding damage and/or 100% mortality) ([2]; sprayed at 250 ppm): very good to excellent levels of control efficacy

Compound: C[Si](C)(C)C#Cc1nn(-c2ccc(Cl)c(Cl)c2)cc1CN1CCC(C#N)CC1 [Compound 29]
- control efficacy (40% or less feeding damage and/or 100% mortality) ([2]; sprayed at 50 ppm): very good to excellent levels of control efficacy

Compound: C#Cc1nn(-c2ccc(Cl)c(Cl)c2)cc1CN1CCC(C#N)CC1 [Compound 31]
- control efficacy (40% or less feeding damage and/or 100% mortality) ([1]; sprayed at 50 ppm): very good to excellent levels of control efficacy

Compound: N#CC1CCN(Cc2cn(-c3ccc(Cl)c(Cl)c3)nc2C#Cc2ccccc2)CC1 [Compound 32]
- control efficacy (40% or less feeding damage and/or 100% mortality) ([1]; sprayed at 50 ppm): very good to excellent levels of control efficacy

Compound: N#CC1CCN(Cc2cn(-c3cc(C(F)(F)F)ccn3)nc2C2CC2)CC1 [Compound 35]
- control efficacy (40% or less feeding damage and/or 100% mortality) ([1]; sprayed at 50 ppm): very good to excellent levels of control efficacy
- control efficacy (40% or less feeding damage and/or 100% mortality) ([1]; sprayed at 250 ppm): very good to excellent levels of control efficacy
- control efficacy (40% or less feeding damage and/or 100% mortality) ([2]; sprayed at 50 ppm): very good to excellent levels of control efficacy
- control efficacy (40% or less feeding damage and/or 100% mortality) ([2]; sprayed at 250 ppm): very good to excellent levels of control efficacy

Compound: FC(F)(F)C1CCN(Cc2cn(-c3ccc(Cl)cn3)nc2C2CCCC2)CC1 [Compound 36]
- control efficacy (40% or less feeding damage and/or 100% mortality) ([1]; sprayed at 50 ppm): very good to excellent levels of control efficacy
- control efficacy (40% or less feeding damage and/or 100% mortality) ([1]; sprayed at 250 ppm): very good to excellent levels of control efficacy
- control efficacy (40% or less feeding damage and/or 100% mortality) ([2]; sprayed at 50 ppm): very good to excellent levels of control efficacy
- control efficacy (40% or less feeding damage and/or 100% mortality) ([2]; sprayed at 250 ppm): very good to excellent levels of control efficacy

Compound: FC(F)(F)C1CCN(Cc2cn(-c3cc(Cl)ccn3)nc2C2CCCC2)CC1 [Compound 37]
- control efficacy (40% or less feeding damage and/or 100% mortality) ([1]; sprayed at 50 ppm): very good to excellent levels of control efficacy
- control efficacy (40% or less feeding damage and/or 100% mortality) ([1]; sprayed at 250 ppm): very good to excellent levels of control efficacy
- control efficacy (40% or less feeding damage and/or 100% mortality) ([2]; sprayed at 50 ppm): very good to excellent levels of control efficacy
- control efficacy (40% or less feeding damage and/or 100% mortality) ([2]; sprayed at 250 ppm): very good to excellent levels of control efficacy

Compound: N#CC1CCN(Cc2cn(-c3cc(Cl)ccn3)nc2C2CCCC2)CC1 [Compound 38, 1-[[1-(4-chloro-2-pyridinyl)-3-cyclopentyl-1H-pyrazol-4-yl]methyl]-4-piperidinecarbonitrile]
- control efficacy (40% or less feeding damage and/or 100% mortality) ([1]; sprayed at 50 ppm): very good to excellent levels of control efficacy
- control efficacy (40% or less feeding damage and/or 100% mortality) ([1]; sprayed at 250 ppm): very good to excellent levels of control efficacy
- control efficacy (40% or less feeding damage and/or 100% mortality) ([2]; sprayed at 50 ppm): very good to excellent levels of control efficacy
- control efficacy (40% or less feeding damage and/or 100% mortality) ([2]; sprayed at 250 ppm): very good to excellent levels of control efficacy
- mortality at 250 ppm [3]: ≥ 80%

Compound: N#CC1CCN(Cc2cn(-c3cc(C(F)(F)F)ccn3)nc2C2CCC2)CC1 [Compound 46, 1-[[3-cyclobutyl-1-[4-(trifluoromethyl)-2-pyridinyl]-1H-pyrazol-4-yl]methyl]-4-piperidinecarbonitrile]
- control efficacy (40% or less feeding damage and/or 100% mortality) ([1]; sprayed at 50 ppm): very good to excellent levels of control efficacy
- control efficacy (40% or less feeding damage and/or 100% mortality) ([1]; sprayed at 250 ppm): very good to excellent levels of control efficacy
- control efficacy (40% or less feeding damage and/or 100% mortality) ([2]; sprayed at 50 ppm): very good to excellent levels of control efficacy
- control efficacy (40% or less feeding damage and/or 100% mortality) ([2]; sprayed at 250 ppm): very good to excellent levels of control efficacy
- mortality at 250 ppm [3]: ≥ 80%
